# According to US6897219B2, “Heteroaryl diazacycloalkanes, their preparation and use” (priority 1997, dated 2005):
# Read-outs that look alike come from different tables or passages of the source.
# What was measured:
# [1] = target: T1, neuronal nicotinic receptors (α4β2 subtype high affinity site) (Rattus norvegicus, UniProt P09483+P12390); assay: In vitro inhibition of 3H-epibatidin binding
# T1 construct: The forebrain (÷cerebellum) from a male Wistar rat (150-250 g) is homogenized; from tissue; host or cells: rat forebrain (without cerebellum) membrane homogenate
# Experimental: The high affinity binding site for ^3H-epibatidin is most certainly binding to the α4β2 subtype of nicotinic receptors. The identity of the low affinity site is still unknown; does it represent a second nicotinic receptor or a second site in the same receptor.
# Tissue preparation: Preparations are performed at 0-4° C. unless otherwise indicated. The forebrain (÷cerebellum) from a male Wistar rat (150-250 g) is homogenized for 10-20 sec in 20 ml Tris, HCl (50 mM, pH 7.4) using an Ultra-Turrax homogenizer. The tissue suspension is centrifuged at 27,000×g for 10 min. The supernatant is discarded and the pellet is washed three times by centrifugation at 27,000×g for 10 min in 20 ml fresh buffer, and the final pellet is resuspended in fresh buffer (400 ml per g of original tissue) and used for binding assays.
# Assay: Aliquots of 2.0 ml homogenate are added to 0.100 ml of test solution and 0.100 ml of ^3H-epibatidin (0.3 nM, final concentration), mixed and incubated for 60 min at room temperature. Non-specific binding is determined using (−)-nicotine (30 μM, final concentration). After incubation the samples are poured directly onto Whatman GF/C glass fibre filters (presoaked in 0.1% PEI for at least 20 min) under suction and immediately washed with 2×5 ml ice-cold buffer. The amount of radioactivity on the filters is determined by conventional liquid scintillation counting. Specific binding is total binding minus non-specific binding.
# [2] = target: nAChR formed by the α7 subunit isoform (Rattus norvegicus, UniProt Q05941); assay: biochemical; format: binding
# [3] = target: nAChRs comprised of α4 and β2 subunits (Rattus norvegicus, UniProt P09483+P12390); assay: In vitro inhibition of 3H-cytisine binding
# Experimental: The predominant subtype with high affinity for nicotine is comprised of α4 and β2 subunits. nAChRs of the latter type can selectively be labelled by the nicotine agonist ^3H-cytisine.
# Tissue Preparation: Preparations are performed at 0-4° C. unless otherwise indicated. […] The homogenate is centrifuged at 27,000×g for 10 min. The supernatant is discarded and the pellet is resuspended in fresh buffer and centrifuged a second time. The final pellet is resuspended in fresh buffer (35 ml per g of original tissue) and used for binding assays.
# Assay: Aliquots of 500 μl homogenate are added to 25 μl of test solution and 25 μl of ^3H-cytisine (1 nM, final concentration), mixed and incubated for 90 min at 2° C. Non-specific binding is determined using (−)-nicotine (100 μM, final concentration). After incubation the samples are added 5 ml of ice-cold buffer and poured directly onto Whatman GF/C glass fibre filters under suction and immediately washed with 2×5 ml ice-cold buffer. The amount of radioactivity on the filters is determined by conventional liquid scintillation counting. Specific binding is total binding minus non-specific binding.
# [4] = rat cerebral cortex homogenate, 1 nM 3H-cytisine, 90 min at 2° C., read-out: 3H-cytisine IC50
# [5] = rat forebrain homogenate, 0.3 nM 3H-epibatidin, 60 min at room temperature, read-out: 3H-epibatidin IC50
# nAChR formed by the α7 subunit isoform, sequence (Q05941 23-502): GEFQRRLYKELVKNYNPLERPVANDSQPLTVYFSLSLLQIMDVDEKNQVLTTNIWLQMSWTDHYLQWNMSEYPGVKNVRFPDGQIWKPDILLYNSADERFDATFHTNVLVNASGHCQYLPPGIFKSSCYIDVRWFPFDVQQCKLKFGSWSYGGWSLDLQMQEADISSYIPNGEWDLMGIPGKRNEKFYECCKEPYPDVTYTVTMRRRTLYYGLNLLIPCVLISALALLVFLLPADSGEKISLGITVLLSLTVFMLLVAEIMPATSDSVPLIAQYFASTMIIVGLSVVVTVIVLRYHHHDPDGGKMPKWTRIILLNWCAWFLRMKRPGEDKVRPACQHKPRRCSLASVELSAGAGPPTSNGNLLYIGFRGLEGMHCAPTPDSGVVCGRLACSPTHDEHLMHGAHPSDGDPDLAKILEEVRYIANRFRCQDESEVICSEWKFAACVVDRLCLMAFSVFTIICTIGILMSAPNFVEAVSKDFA
# T1 sequence (P09483 31-630): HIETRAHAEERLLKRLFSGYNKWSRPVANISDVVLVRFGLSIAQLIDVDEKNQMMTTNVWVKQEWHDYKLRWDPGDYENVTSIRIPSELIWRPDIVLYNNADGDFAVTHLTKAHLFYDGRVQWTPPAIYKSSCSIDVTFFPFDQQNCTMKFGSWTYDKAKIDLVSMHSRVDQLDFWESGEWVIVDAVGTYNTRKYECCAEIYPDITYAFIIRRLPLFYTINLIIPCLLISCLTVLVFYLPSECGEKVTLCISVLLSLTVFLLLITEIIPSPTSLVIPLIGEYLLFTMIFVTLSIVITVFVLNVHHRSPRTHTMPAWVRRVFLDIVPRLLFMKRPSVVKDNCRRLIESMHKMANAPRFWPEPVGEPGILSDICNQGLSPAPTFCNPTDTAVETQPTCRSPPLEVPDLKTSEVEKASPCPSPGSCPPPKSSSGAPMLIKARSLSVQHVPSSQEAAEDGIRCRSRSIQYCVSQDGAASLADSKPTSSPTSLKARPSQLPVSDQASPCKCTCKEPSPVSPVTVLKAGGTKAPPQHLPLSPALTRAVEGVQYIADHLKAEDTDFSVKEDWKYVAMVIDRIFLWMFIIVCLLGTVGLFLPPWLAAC
# T1 sequence (P12390 25-500): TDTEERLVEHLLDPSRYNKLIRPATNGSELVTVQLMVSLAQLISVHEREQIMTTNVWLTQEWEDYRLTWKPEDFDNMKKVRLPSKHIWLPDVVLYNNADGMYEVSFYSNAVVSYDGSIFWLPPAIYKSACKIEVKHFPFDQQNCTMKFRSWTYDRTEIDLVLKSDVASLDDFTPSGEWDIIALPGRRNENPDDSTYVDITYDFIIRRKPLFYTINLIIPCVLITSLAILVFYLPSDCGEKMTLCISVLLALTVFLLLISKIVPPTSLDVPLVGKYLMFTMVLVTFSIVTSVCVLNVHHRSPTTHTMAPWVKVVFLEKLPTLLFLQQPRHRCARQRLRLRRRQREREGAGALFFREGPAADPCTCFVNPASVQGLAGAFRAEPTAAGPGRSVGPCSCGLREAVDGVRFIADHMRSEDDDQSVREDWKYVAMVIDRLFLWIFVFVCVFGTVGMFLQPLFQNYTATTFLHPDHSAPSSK
# nAChRs comprised of α4 and β2 subunits, sequence (P09483 31-630): as the sequence (P09483 31-630) above
# nAChRs comprised of α4 and β2 subunits, sequence (P12390 25-500): as the sequence (P12390 25-500) above
SMILES,IC50 [1] [nM],IC50 [2] [nM],"IC50 [3, 4] [nM]","IC50 [1, 5] [nM]",IC50 [3] [nM],IC50 ([2]; read-out: 3H-α-bungarotoxin IC50) [nM]
"c1ccc2nc(N3CCCNCC3)cnc2c1 [Compound 2L, 1-(2-Quinoxalinyl)-homopiperazine]",2000,27000,260,,,
"COc1cncc(N2CCCN(C)C2)c1 [Compound 2M, 1-(5-Methoxy-3-pyridyl)-3-methyl-1,3-diazacyclohexane]",,> 30000,,2700,90,
"COc1cncc(N2CCNCC2)c1 [Compound 3B, 1-(5-Methoxy-3-pyridyl)-piperazine]",4500,> 30000,800,,,
"COc1cncc(N2CCCN(C)CC2)c1 [Compound 3E, 1-(5-Methoxy-3-pyridyl)-4-methyl-homopiperazine]",,26000,,750,94,
"CCOc1cncc(N2CCCNCC2)c1 [Compound 3H, 1-(5-Ethoxy-3-pyridyl)-homopiperazine]",10,20000,,,2,
"Clc1cncc(N2CCCNCC2)n1 [Compound 3K, 1-(6-Chloro-2-pyrazinyl)-homopiperazine]",160,5600,,,20,
"Clc1cncc(N2CCNCC2)c1 [Compound 4B, 1-(5-Chloro-3-pyridyl)-piperazine]",3000,> 30000,310,,,
"CCOc1cncc(N2CCCN(C)CC2)c1 [Compound 4E, 1-(5-Ethoxy-3-pyridyl)-4-methyl-homopiperazine]",,> 30000,,300,50,
"CN1CCN(c2cncc(Cl)c2)CC1 [Compound 5A, 1-(5-Chloro-3-pyridyl)-4-Methyl-piperazine]",650,73400,,,80,
"CN1CCCN(c2cncc(-c3ccccc3)c2)CC1 [Compound 5E, 4-Methyl-1-(5-phenyl-3-pyridyl)-homopiperazine]",1500,16000,200,,,
"COc1cc(N2CCCNCC2)cnc1Cl [Compound 5F, 1-(6-Chloro-5-methoxy-3-pyridyl)-homopiperazine]",5,900,,,0.7,
"COCCOc1cncc(N2CCCNCC2)c1 [Compound 5H, 1-(5-Methoxyethoxy-3-pyridyl)-homopiperazine]",20,19000,,,2,
"Cc1ccc(N2CCCNCC2)nn1 [Compound 5K, 1-(6-Methyl-3-pyridazinyl)-homopiperazine]",740,4800,,,160,
"CN1CCN(c2cncc(-c3ccccc3)c2)CC1 [Compound 6A, 4-Methyl-1-(5-phenyl-3-pyridyl)-piperazine]",,> 30000,,1100,80,
"COc1cncc(N2CCCNCCC2)c1 [Compound 6B, 1-(5-Methoxy-3-pyridyl)-1,5-diazacyclooctane]",3.2,2500,,,1,
"CCCCOc1cncc(N2CCCN(C)CC2)c1 [Compound 6E, 1-(5-Butoxy-3-pyridyl)-4-methyl-homopiperazine]",,> 30000,,240,45,
"CC(C)COc1cncc(N2CCCNCC2)c1 [Compound 6H, 1-[5-(2-Methyl-propoxy)-3-pyridyl]-homopiperazine]",10,> 30000,,,2,
"FC(F)(F)c1cncc(N2CCCNCC2)c1 [Compound 6K, 1-(5-Triflouromethyl-3-pyridyl)-homopiperazine]",,,9,40,,6400
"CCOc1cncc(N2CCN(C)CC2)c1 [Compound 7A, 1-(5-Ethoxy-3-pyridyl)-4-methyl-piperazine]",90,> 30000,,,6,

SMILES,IC50 [1] [nM],IC50 [2] [nM],"IC50 [3, 4] [nM]","IC50 [1, 5] [nM]",IC50 [3] [nM],IC50 ([2]; read-out: 3H-α-bungarotoxin IC50) [nM]
"Clc1ccc(N2CCCNCCC2)nn1 [Compound 7B, 1-(6-Chloro-3-pyridazinyl)-1,5-diazacyclooctane]",,460,,150,30,
"COCCOc1cncc(N2CCCN(C)CC2)c1 [Compound 7E, 1-(5-Methoxyethoxy-3-pyridyl)-4-methyl-homopiperazine]",,> 30000,,550,70,
"Clc1ccc(N2CCCCNCC2)nn1 [Compound 8B, 1-(6-Chloro-3-pyridazinyl)-1,4-diazacyclooctane]",920,5500,550,,,
"CC(C)COc1cncc(N2CCCN(C)CC2)c1 [Compound 8E, 4-Methyl-1-[5-(2-methyl-propyloxy)-3-pyridyl]-homopiperazine]",,> 30000,,450,70,
"Brc1ccc(N2CCCNCC2)cn1 [Compound 8K, 1-(6-Bromo-3-pyridyl)-homopiperazine]",10,620,1,,,
"CCOc1cncc(N2CCN(CC)CC2)c1 [Compound 9D, 1-(5-Ethoxy-3-pyridyl)-4-ethyl-piperazine]",210,> 30000,,,70,
"CN1CCCN(c2cncc(OCC3CC3)c2)CC1 [Compound 9E, 1-(5-Cyclopropylmethoxy-3-pyridyl)-4-methyl-homopiperazine]",,> 30000,,4800,78,
"c1ncc(N2CCCNCC2)cc1OCC1CC1 [Compound 9H, 1-(5-Cyclopropylmethoxy-3-pyridyl)-homopiperazine]",6,> 30000,,,1,
"CCCOc1cncc(N2CCCN(C)CC2)c1 [Compound 10E, 4-Methyl-1-(5-propyloxy-3-pyridyl)-homopiperazine]",,> 30000,,290,60,
"CCCOc1cncc(N2CCCNCC2)c1 [Compound 10H, 1-(5-Propyloxy-3-pyridyl)-homopiperazine]",5.4,> 30000,,,0.9,
"CCCCCCOc1cncc(N2CCCN(C)CC2)c1 [Compound 11E, 1-(5-Hexyloxy-3-pyridyl)-4-methyl-homopiperazine]",250,> 30000,800,,,
"CC(C)CCOc1cncc(N2CCCN(C)CC2)c1 [Compound 12E, 4-Methyl-1-[5-(3-methyl-butoxy)-3-pyridyl]-homopiperazine]",,> 30000,,270,55,
"CN1CCCN(c2cncc(OCC3CCCCC3)c2)CC1 [Compound 14E, 1-(5-Cyclohexylmethoxy-3-pyridyl)-4-methyl-homopiperazine]",480,> 30000,200,,,
"CCCCCOc1cncc(N2CCCN(C)CC2)c1 [Compound 15E, 4-Methyl-1-(5-pentyloxy-3-pyridyl)-homopiperazine]",,> 30000,,210,30,
"CCCCCCCOc1cncc(N2CCCN(C)CC2)c1 [Compound 16E, 1-(5-Heptyloxy-3-pyridyl)-4-methyl-homopiperazine]",700,> 30000,280,,,
"C/C=C/Oc1cncc(N2CCCN(C)CC2)c1 [Compound 17E, trans-4-Methyl-1-(5-propyl-1-en-oxy-3-pyridyl)-homopiperazine]",90,> 30000,,,20,
"CN1CCCN(c2cncc(SCc3ccccc3)c2)CC1 [Compound 18E, 4-Methyl-1-(5-thiobenzyl-3-pyridyl)-homopiperazine]",800,15000,600,,,
"CN1CCCN(c2cncc(-c3cccnc3)c2)CC1 [Compound 19E, 4-Methyl-1-[5-(3-pyridyl)-3-pyridyl]-homopiperazine]",1800,> 30000,170,,,
"CN1CCCN(c2cncc(OC3CCCC3)c2)CC1 [Compound 25E, 1-(5-Cyclopentyloxy-3-pyridyl)-4-methyl-homopiperazine]",,> 30000,,610,80,
